# Measurements published in patent publication US5571799A, “(2'-5') oligoadenylate analogues useful as inhibitors of host-v5.-graft response” (Basco, Ltd., priority 1994, dated 1996).
# “Also recorded” adds a separate entry of the source.
# Legend:
# [1] = test system: β-lymphocytes (murine splenocytes) stimulated with lipopolysaccharide; assay: In vitro blast-transformation of murine lymphocytes, LPS (β-lymphocyte mitogen), [3H]-thymidine; assay type: cell-based, mouse (CBA); settings: LPS 0.1 μg/ml; 5 × 10^-6 M; control 27,133
# Description: (§1) The immune reactions in an organism begins with the division of lymphocytes. In vitro investigation of the lymphocyte blast-transformationreaction under the influence of mitogens makes it possible to use this model system to select chemically synthesized 2'-5'A3 analogues which suppress division of lymphocytes. Using Concanavalin A and lipopolysaccharide as mitogens, the effect of analogues on the division of T- and β-lymphocytes may be investigated.
# (§2) CBA mice 8-10 weeks old were used for these experiments. A suspension of mouse splenocytes were obtained by gently teasing spleens with forceps. Lymphocytes cultivated in flat-bottomed 96-well plates (Linbro) in RPMI-1640 medium (Flow Lab.) were supplemented with 2 mM 1-glutamine, 10 μg/ml gentamicin, 10^-5 M 2-mercaptoethanol and 10% heat inactivated fetal calf serum (Flow Lab). Cultures were maintained in 5% CO2 at 37° C. One μCi of ^3 H-thymidine (Isotop®) was added to each well 4 hours before the end of the incubation period. Incorporation of ^3 H-thymidine into cellular DNA was determined by liquid scintillation counting using standard techniques. Oligoadenylate was added to the medium at the beginning of culturing to achieve the final concentration.
# (§3) (Con A being a mitogen for T-lymphocytes and LPS being a mitogen for β-lymphocytes).
# T-killers and T-helpers = assay: Immunosuppressive activity in vivo in monkeys; set-up: species or system Macaque Rh. monkeys; settings: monkeys, IV, disodium salt
# Experimental: (§4) The experiments were performed on 4 year-old Macaque Rh. monkeys. The levels of the principal subpopulations of T-lymphocytes, IgA, IgG, IgM and the amount of α- and γ-interferon and interleukin II after administration (2'-5')olygoadenylate and its analogies at the concentration of 50 and 25 μg/kg of the body weight was investigated.
# (§5) FLOW CYTOFLUOROGRAFIC ANALYSIS OF LYMPHOCYTE SUBSETS
# (§6) Blood samples (100 μl of whole blood) were placed into a 12×17 tube. To these cells 20 μl of purified monoclonal antibodies were added with specificity for human cytotoxic/suppressor cells anti-Leu-2a (CD8), human helper/inducer anti-Leu-3a (CD4) and FITC conjugated monoclonal antibodies with specificity for natural killer cells-anti-Leu11c (CD16) (Becton Dickinson, San Jose). After 30 minutes incubation on ice, the cells were washed once and 20 μl of goat-antimouse chain phycoerythrin (Sigma P1286) conjugate were added to the tube with anti-Leu-2a and anti-Leu-3a monoclonal antibodies.
# (§7) After erythrocyte lysing with FACS lysing solution (Becton Dickinson, San Jose) the cells were analyzed on FACScan flow cytometer (Becton Dickinson, San Jose) with scatter gate set on lymphocyte fraction.
# [2] = test system: snake venom phosphodiesterase; assay: Stability to the action of snake venom phosphodiesterase; assay type: in vitro ADME
# Experimental: Determination of (2'-5')oligoadenylates and analogues stability to the action of snake venom phosphodiesterase
# Upon entering an organism 2'-5'A3 and the analogues are quickly hydrolyzed to monomeric compound(s). Prior to administration of 2'-5'A3 analogues in vivo to animal, it was considered necessary to determine their stability towards snake venom phosphodiesterase in comparison to the parent 2'-5'A3.
# The solution of 3 μg of the snake venom phosphodiesterase (Boehringer Mannheim cat. No. 108260) in 30 μl of 0.1 M Tris HCl buffer, containing 0.002 M MgCl2 (pH 8.78) is added to the solution of 4-5·10^-7 M trimer in 100 μl of the same buffer. The solution was left standing at 20° C. At regular intervals, 10 μl samples were taken, heated at 90° C. for 1 minute and preparative thin layer chromatography was performed on the Silufole™ plates, using a 7:1:2 mixture of isopropanol:aqueous ammonia:water.
# The spot, corresponding to the initial trimer, was cut out, the substance was extracted with 2 ml of 0.5% solution of the dodecylsulfate sodium salt solution for 2 hours, and the optical density of the solution was determined at 260 nm.
# T-helpers = assay: Immune system of monkeys: T-helpers, flow cytofluorografic analysis; assay type: in vivo, Macaque Rh. monkeys
# Experimental: as §4, §5, §6, §7
# [3] = test system: Type I and II herpes virus; settings: cited from earlier work
# [4] = test system: T-lymphocytes (murine splenocytes) stimulated with Concanavalin A; assay: In vitro blast-transformation of murine lymphocytes, Con A (T-lymphocyte mitogen), [3H]-thymidine; assay type: cell-based, mouse (CBA); settings: Con A 5 μg/ml; 5 × 10^-6 M; control 22,296
# Description: as §1
# as §2, with “Lymphocytes cultivated in flat-bottomed 96-well plates (Linbro) in RPMI-1640 medium (Flow Lab.) were supplemented with 2 mM 1-glutamine, 10 μg/ml gentamicin, 10^-5 M 2-mercaptoethanol and 10% heat inactivated fetal calf serum (Flow Lab).” left out
# as §3
# T-suppressors = assay: Immune system of monkeys: T-suppressors, flow cytofluorografic analysis; assay type: in vivo, Macaque Rh. monkeys
# Experimental: as §4, with “Immunosuppressive activity of the prototype 2'-5'A3 and two analogues (2'-5')A2 Ar-epoxy and (2'-5')A2 A^l-epoxy were investigated in monkeys. The experiments” for “The experiments”
# as §5, §6, §7
substance,measurement,setting,value
"Adenylyl (2'-5')adenylyl (2'-5')-9-(2,3-anhydro-β-D-lyxofuranosyl) adenine disodium salt [(2'-5')A2 A^l-epoxy]",DNA synthesis at [^3 H]-thymidine [incorporated counts/min.],[1],"10,828 counts/min."
same,"immunosuppressive activity, in words",T-killers and T-helpers,considerably lower than that exhibited by (2'-5')A2 Ar-epoxy; also recorded: exhibit immunosuppressive activity in the in vivo experiments
same,"immunosuppressive activity, in words",T-killers and T-helpers; listed as (2 -5')A2 A^l-epoxy,strong immunosuppressive activity specifically against T-killers and T-helpers
same,T 1/2 (time for optical density of initial trimer to decrease by 50%),"[2]; 20° C., 0.1 M Tris HCl, 0.002 M MgCl2, pH 8.78",10.5 h
same,stability / resistance to phosphodiesterase,[2]; in words,significantly more resistant towards hydrolysis by phosphodiesterase
same,T-helpers,"T-helpers; Table 8, single IV 25 μg/kg, day 2, control (day before) 26.2",27%
same,T-helpers,"T-helpers; Table 8, single IV 25 μg/kg, day 4, control (day before) 26.2",25.3%
same,T-helpers,"T-helpers; Table 9, single IV 50 μg/kg, day 2, control (day before) 22",20.5%
same,T-helpers,"T-helpers; Table 9, single IV 50 μg/kg, day 4, control (day before) 22",18.4%
same,"activity against Type I and II herpes virus, in words",[3],active against the Type I and II herpes virus
same,DNA synthesis at [^3 H]-thymidine [incorporated counts/min.],[4],"15,749 counts/min."
same,T-suppressors,"T-suppressors; Table 8, single IV 25 μg/kg, day 2, control (day before) 53.1",44%
same,T-suppressors,"T-suppressors; Table 8, single IV 25 μg/kg, day 4, control (day before) 53.1",43.4%
same,T-suppressors,"T-suppressors; Table 9, single IV 50 μg/kg, day 2, control (day before) 42",44%
same,T-suppressors,"T-suppressors; Table 9, single IV 50 μg/kg, day 4, control (day before) 42",43.4%
